Source: patent US8138168B1 (Takeda Pharmaceutical Company Limited, priority 2007, dated 2012)

target: T1, Recombinant human renin (Homo sapiens, UniProt P00797); assay: In vitro enzymatic activity assay of renin inhibitors (fluorogenic peptide substrate); format: biochemical; conditions: read-out: IC50 of Exemplified Compounds Against Renin
T1 construct: isolate the active form (residues 67-406); made in house; host or cells: FreeStyle 293-F cells (transient expression of pcDNA3.1(+)/hREN)
T1 sequence (P00797 67-406): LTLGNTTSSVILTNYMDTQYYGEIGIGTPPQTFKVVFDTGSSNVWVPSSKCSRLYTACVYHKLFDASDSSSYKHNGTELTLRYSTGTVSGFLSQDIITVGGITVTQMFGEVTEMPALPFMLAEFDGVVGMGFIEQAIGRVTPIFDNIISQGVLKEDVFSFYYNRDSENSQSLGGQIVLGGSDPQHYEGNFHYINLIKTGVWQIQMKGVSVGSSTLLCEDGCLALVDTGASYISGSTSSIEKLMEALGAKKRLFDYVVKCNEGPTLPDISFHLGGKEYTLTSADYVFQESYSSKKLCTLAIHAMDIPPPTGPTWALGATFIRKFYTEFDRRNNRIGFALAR
Method in brief: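 Recombinant human renin (3 nM final) pre-incubated 10 min at 37 °C with compounds in pH 7.4 Hepes/EDTA/DTT/0.1 mg/mL BSA/Brij35 buffer (optionally plus 2% BSA), 5% DMSO final; fluorogenic QXL520/HiLyteFluo488 peptide substrate added.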

IC50 [nM] | Structure (SMILES)
> 1000 | Cc1cccc(C[C@@H](N)CC(=O)N2CCCC(c3nc4ccccc4[nH]3)C2)c1 (stereo partly drawn) [Compound 43, (3R)-1-(3-(1H-benzo[d]imidazol-2-yl)piperidin-1-yl)-3-amino-4-m-tolylbutan-1-one]
> 1000 | COCCCn1c([C@@H]2CCCN(C(=O)[C@@H]3CN(C(=O)N4CCCC4)C[C@H]3N)C2)nc2ccccc21 [Compound 417, ((3R,4S)-4-amino-1-(pyrrolidine-1-carbonyl)pyrrolidin-3-yl)((R)-3-(1-(3-methoxypropyl)-1H-benzo[d]imidazol-2-yl)piperidin-1-yl)methanone]
< 100 | COCCCn1c([C@@H]2CCCN(C(=O)C[C@H](N)Cc3ccc(-c4cccnc4OC)cc3)C2)nc2ccccc21 [Compound 163, (R)-3-amino-1-((R)-3-(1-(3-methoxypropyl)-1H-benzo[d]imidazol-2-yl)piperidin-1-yl)-4-(4-(2-methoxypyridin-3-yl)phenyl)butan-1-one]
< 100 | COCCCn1c([C@@H]2CCCN(C(=O)C[C@H](N)Cc3ccc(C(C)(C)C)cc3)C2)nc2ccccc21 [Compound 90, (R)-3-amino-4-(4-tert-butylphenyl)-1((R)-3-(1-(3-methoxypropyl)-1H-benzo[d]imidazol-2-yl)piperidin-1-yl)butan-1-one]
> 1000 | N[C@H]1CCC[C@@H]1C(=O)N1CCCC(c2nc3ccccc3[nH]2)C1 (stereo partly drawn) [Compound 57, (3-(1H-benzo[d]imidazol-2-yl)piperidin-1-yl)((1S,2S)-2-aminocyclopentyl)methanone]
100 to 1000 | COCCCn1c([C@@H]2CCCN(C(=O)C[C@H](N)CNC(=O)c3c(Cl)cccc3Cl)C2)nc2ccccc21 [Compound 289, N-((S)-2-amino-4-((R)-3-(1-(3-methoxypropyl)-1H-benzo[d]imidazol-2-yl)piperidin-1-yl)-4-oxobutyl)-2,6-dichlorobenzamide]
> 1000 | COCCCn1c([C@@H]2CCCN(C(=O)[C@@H]3CN(C(=O)Nc4ccccc4)C[C@H]3N)C2)nc2ccccc21 [Compound 404, (3S,4R)-3-amino-4-((R)-3-(1-(3-methoxypropyl)-1H-benzo[d]imidazol-2-yl)piperidine-1-carbonyl)-N-phenylpyrrolidine-1-carboxamide]
> 1000 | O=C(NCc1ccco1)N1CCCC(c2nc3ccccc3[nH]2)C1 (centres unmarked) [Compound 21, 3-(1H-benzo[d]imidazol-2-yl)-N-(furan-2-ylmethyl)piperidine-1-carboxamide]
< 100 | COCCCn1c([C@@H]2CCCN(C(=O)C[C@H](N)Cc3ccc(-n4ccnc4)cc3)C2)nc2ccccc21 [Compound 208, (R)-4-(4-(1H-imidazol-1-yl)phenyl)-3-amino-1-((R)-3-(1-(3-methoxypropyl)-1H-benzo[d]imidazol-2-yl)piperidin-1-yl)butan-1-one]
< 100 | COCCCn1c([C@@H]2CCCN(C(=O)C[C@H](N)Cc3ccc(-c4ccc(C(=O)NCCO)cc4)cc3)C2)nc2ccccc21 [Compound 182, 4′-((R)-2-amino-4-((R)-3-(1-(3-methoxypropyl)-1H-benzo[d]imidazol-2-yl)piperidin-1-yl)-4-oxobutyl)-N-(2-hydroxyethyl)biphenyl-4-carboxamide]
> 1000 | COCCCn1c([C@@H]2CCCN(C(=O)C[C@H](N)c3cnccc3OC)C2)nc2ccccc21 [Compound 120, (S)-3-Amino-1((R)-3-(1-(3-methoxypropyl)-1H-benzo[d]imidazol-2-yl)piperidin-1-yl)-3-(4-methoxypyridin-3-yl)propan-1-one]
< 100 | COCCCn1c([C@@H]2CCCN(C(=O)C[C@H](N)Cc3ccc(-c4ccnc(O)c4)cc3)C2)nc2ccccc21 [Compound 437, (R)-3-amino-4-(4-(2-hydroxypyridin-4-yl)phenyl)-1-((R)-3-(1-(3-methoxypropyl)-1H-benzo[d]imidazol-2-yl)piperidin-1-yl)butan-1-one]
100 to 1000 | COCCCn1c([C@@H]2CCCN(C(=O)C[C@H](N)CNC(=O)c3ccc(Cl)c(Cl)c3)C2)nc2ccccc21 [Compound 262, N-((S)-2-amino-4-((R)-3-(1-(3-methoxypropyl)-1H-benzo[d]imidazol-2-yl)piperidin-1-yl)-4-oxobutyl)-3,4-dichlorobenzamide]
< 100 | COCCCn1c([C@@H]2CCCN(C(=O)C[C@H](N)Cc3ccc(-c4ccc(C(=O)N5CCOCC5)cc4)cc3)C2)nc2ccccc21 [Compound 127, (R)-3-amino-1-((R)-3-(1-(3-methoxypropyl)-1H-benzo[d]imidazol-2-yl)piperidin-1-yl)-4-(4′-(morpholine-4-carbonyl)biphenyl-4-yl)butan-1-one]
100 to 1000 | COCCCn1c([C@@H]2CCCN(C(=O)C[C@H](N)Cc3ccc(Cl)c(Cl)c3)C2)nc2ccccc21 [Compound 77, (R)-3-amino-4-(3,4-dichlorophenyl)-1((R)-3-(1-(3-methoxypropyl)-1H-benzo[d]imidazol-2-yl)piperidin-1-yl)butan-1-one]
> 1000 | COCCCn1c(C2CCCN(C(=O)C[C@H](N)Cc3ccc4ccccc4c3)C2)nc2cccc(C(=O)OC)c21 (stereo partly drawn) [Compound 112, methyl 2-(1-((R)-3-amino-4-(naphthalen-2-yl)butanoyl)piperidin-3-yl)-1-(3-methoxypropyl)-1H-benzo[d]imidazole-7-carboxylate]
< 100 | COCCCn1c([C@@H]2CCCN(C(=O)C[C@H](N)Cc3ccc(-c4ccc5occc5c4)cc3)C2)nc2c(C)cccc21 [Compound 494, (R)-3-amino-4-(4-(benzofuran-5-yl)phenyl)-1-((R)-3-(1-(3-methoxypropyl)-4-methyl-1H-benzo[d]imidazol-2-yl)piperidin-1-yl)butan-1-one]
> 1000 | CC(C)(C)[C@H](N)C(=O)N1CCCC(c2nc3ccccc3[nH]2)C1 (stereo partly drawn) [Compound 56, (2S)-1-(3-(1H-benzo[d]imidazol-2-yl)piperidin-1-yl)-2-amino-3,3-dimethylbutan-1-one]
< 100 | COCCCn1c([C@@H]2CCCN(C(=O)C[C@H](N)Cc3ccc(N4CCC(CCO)CC4)cc3)C2)nc2ccccc21 [Compound 236, (R)-3-amino-4-(4-(4-(2-hydroxyethyl)piperidin-1-yl)phenyl)-1-((R)-3-(1-(3-methoxypropyl)-1H-benzo[d]imidazol-2-yl)piperidin-1-yl)butan-1-one]
< 100 | COCCCn1c([C@@H]2CCCN(C(=O)C[C@H](N)Cc3ccc(-c4ccncc4)cc3)C2)nc2ccccc21 [Compound 126, (R)-3-amino-1-((R)-3-(1-(3-methoxypropyl)-1H-benzo[d]imidazol-2-yl)piperidin-1-yl)-4-(4-(pyridin-4-yl)phenyl)butan-1-one]
> 1000 | O=C(C1CCCNC1)N1CCCC(c2nc3ccccc3[nH]2)C1 (centres unmarked) [Compound 52, (3-(1H-benzo[d]imidazol-2-yl)piperidin-1-yl)(piperidin-3-yl)methanone]
> 1000 | O=C(Nc1ccccc1-c1ccccc1)N1CCCC(c2nc3ccccc3[nH]2)C1 (centres unmarked) [Compound 16, 3-(1H-benzo[d]imidazol-2-yl)-N-(biphenyl-2-yl)piperidine-1-carboxamide]
100 to 1000 | COCCCn1c([C@@H]2CCCN(C(=O)C[C@H](N)CNC(=O)c3cccc(Oc4ccccc4)c3)C2)nc2ccccc21 [Compound 270, N-((S)-2-amino-4-((R)-3-(1-(3-methoxypropyl)-1H-benzo[d]imidazol-2-yl)piperidin-1-yl)-4-oxobutyl)-3-phenoxybenzamide]
> 1000 | COCCCn1c([C@@H]2CCCN(C(=O)[C@@H]3CN(S(=O)(=O)c4cccc(-c5nnc(C)o5)c4)C[C@H]3N)C2)nc2ccccc21 [Compound 431, ((3R,4S)-4-amino-1-(3-(5-methyl-1,3,4-oxadiazol-2-yl)phenylsulfonyl)pyrrolidin-3-yl)((R)-3-(1-(3-methoxypropyl)-1H-benzo[d]imidazol-2-yl)piperidin-1-yl)methanone]
< 100 | COCCCn1c([C@@H]2CCCN(C(=O)C[C@H](N)Cc3ccc(-c4ccc5c(c4)OCC(=O)N5)cc3)C2)nc2c(F)cccc21 [Compound 443, 7-(4-((R)-2-amino-4-((R)-3-(4-fluoro-1-(3-methoxypropyl)-1H-benzo[d]imidazol-2-yl)piperidin-1-yl)-4-oxobutyl)phenyl)-2H-benzo[b][1,4]oxazin-3(4H)-one]
100 to 1000 | CCCSc1ncccc1C(=O)NC[C@@H](N)CC(=O)N1CCC[C@@H](c2nc3ccccc3n2CCCOC)C1 [Compound 307, N-((S)-2-amino-4-((R)-3-(1-(3-methoxypropyl)-1H-benzo[d]imidazol-2-yl)piperidin-1-yl)-4-oxobutyl)-2-(propylthio)nicotinamide]
< 100 | COCCCn1c([C@@H]2CCCN(C(=O)C[C@H](N)Cc3ccc(-c4ccc(OC)cc4)cc3)C2)nc2c(F)cccc21 [Compound 492, (R)-3-amino-1-((R)-3-(4-fluoro-1-(3-methoxypropyl)-1H-benzo[d]imidazol-2-yl)piperidin-1-yl)-4-(4′-methoxybiphenyl-4-yl)butan-1-one]
> 1000 | COCCCn1c([C@H]2CCCN(C(=O)C[C@H](N)Cc3ccc(Cl)cc3)C2)nc2ccccc21 [Compound 68, (R)-3-amino-4-(4-chlorophenyl)-1-((S)-3-(1-(3-methoxypropyl)-1H-benzo[d]imidazol-2-yl)piperidin-1-yl)butan-1-one]
100 to 1000 | COCCCn1c([C@@H]2CCCN(C(=O)C[C@H](N)CNC(=O)Nc3cc(C)ccc3OC)C2)nc2ccccc21 [Compound 287, 1-((S)-2-amino-4-((R)-3-(1-(3-methoxypropyl)-1H-benzo[d]imidazol-2-yl)piperidin-1-yl)-4-oxobutyl)-3-(2-methoxy-5-methylphenyl)urea]
